Results published in patent publication US8680058B2, “Selectively targeted antimicrobial peptides and the use thereof” (priority 2006, dated 2014).
In brackets after ≈: the same amount, converted by molar mass. Non-standard residues stand in square brackets, D forms with d. Residues, ends and D or L forms follow the SMILES beside them. No end group written: not given here.

How the values were obtained:
P. aeruginosa ATCC 15692 [1] = assay: Killing of exogenous P. aeruginosa in pooled CF sputum; assay type: cell-based, Pseudomonas aeruginosa
Procedure: 3.2 Activity and stability of G10KHc and G10KHc-D in sputum. Determination of peptide antimicrobial effects or activity in sputum was investigated in a similar manner to previous reports (Sajjan et al., 2001). To assay the activity of G10KHc and G10KHc-D against exogenous P. aeruginosa in sputum, collected sputum samples were diluted 1:10 in 10 mM PBS (PBS) and pooled (referred to as pooled sputum). In 100 μL pooled sputum, ATCC 15692 was added to a final concentration of ˜5×10^6 cfu/mL prior to 25 μM peptide addition.
In samples examining the effect of protease inhibitors on peptide activity, pooled sputum samples were pre-treated for 30 min with 1 mM protease inhibitor, either phenylmethylsulphonylfluoride (PMSF), beta-mercaptoethanol (BME), or ethylenediaminetetraacetic acid (EDTA), (all acquired from Sigma-Aldrich), followed by addition of 25 μM G10KHc and ATCC 15692 (˜5×10^6 cfu/mL).
Bacteria surviving peptide treatment were rescued by dilution (1:50) in growth media at 4 h and kept on ice before appropriate dilution and plating on LB agar supplemented with ampicillin (25 μg/mL). After overnight incubation at 37° C., colonies were counted and the surviving cfu/mL quantitated. 100 cfu/mL was considered as the countable limit for all plating procedures. […]

P. aeruginosa ATCC 15692 [2] = assay: Effect of rhDNase on STAMP killing in concentrated sputum; assay type: cell-based, Pseudomonas aeruginosa
Procedure: 3.4 Effect of rhDNase on STAMP activity in sputum. Recombinant human DNase, which is commonly used during treatment of CF to reduce sputum viscosity and promote airway clearing (Fuchs et al., 1994), was added to pooled, concentrated sputum samples to determine if G10KHc/PMSF and G10KHc-D activity could be improved during co-treatment under these conditions. To determine the effect of rhDNase (Genentech, San Francisco, Calif.) on STAMP killing ability, individual sputum samples were diluted 1:2 in 100 μg/mL rhDNase, briefly vortexed, and incubated at room temperature for 10 min. Treated samples were then pooled, followed by 1 mM PMSF addition, where appropriate, and incubation for 1 h. 25 μM G10KHc or G10KHc-D was then added with ˜5×10^6 cfu/mL ATCC 15692 and incubated 4 h. Survivors were then rescued and quantitated by plating as described above.

P. aeruginosa ATCC 15692 [3] = assay: Time-kill against high-density planktonic P. aeruginosa; assay type: cell-based, Pseudomonas aeruginosa
Procedure: For evaluation of enhanced activity between G10KHc and tobramycin against high density planktonic cultures, ATCC 15692 were grown overnight were adjusted to ˜1×10^8 cfu/mL in ddH2O (pH 7.4) and exposed to 5 μM tobramycin, 5 μM G10KHc or a combination of both agents (a combination of 5 μM tobramycin (2.34 μg/mL) and 5 μM G10KHc or G10). 10 μL of the treated cultures was rescued by dilution after 24 h and the surviving cfu/mL plated on LB and counted after growth on LB agar.

P. aeruginosa biofilms = assay: Rotating-disk biofilm reactor, P. aeruginosa biofilm killing; assay type: cell-based, Pseudomonas aeruginosa; settings: 100 μg/mL alone, 4 h or 24 h
Procedure: In this experiment, a rotating-disk biofilm reactor system was used for generating quantitative data on biofilm susceptibility to tobramycin, G10 and G10KHc. The system consisted of a reactor vessel containing 250 mL of diluted trypticase-soy broth (TSB) (1:100) medium. Reactors were inoculated with overnight cultures (1%, v/v). After static overnight growth in TSB, a flow of fresh medium was initiated (dilution rate, 0.7 h^−1). After 24 h in a flow of medium, the polycarbonate chips with attached biofilm bacteria were aseptically removed from the spinning disk and washed three times in ddH2O (pH 7.4) and incubated in 1 mL ddH2O. G10 (100 μg/mL), G10KHc (100 μg/mL), tobramycin (100 μg/mL), or a combination of the two was added as indicated. The chips were then incubated for 4 or 24 h in 24-well tissue culture plates (Falcon no. 353047; Becton Dickinson Labware, Franklin Lakes, N.J.). To estimate the number of viable P. aeruginosa remaining, the disks were placed in 1 mL PBS and the cells were dispersed using a tissue homogenizer (Brinkmann Instruments, Westbury, N.Y.) and the total cfu per chip was determined by serial dilution and plating on LB agar.

P. aeruginosa = assay: microbe, parasite or virus in culture; assay type: cell-based, Pseudomonas aeruginosa; settings: for MIC: Pseudomonas aeruginosa
Procedure: 2.3 Antimicrobial Activities. The general antimicrobial activities of G10KHc, G10, and tobramycin against clinical isolates of P. aeruginosa were evaluated by minimum inhibitory concentration (MIC) assay as previously described (Eckert et al., 2006) and shown in Table 5. MICs are reported in μM, though for familiarity, 1 μM tobramycin=0.468 μg/mL. P. aeruginosa were grown to log phase and adjusted to ˜1×10^5 cfu/mL in Mueller-Hinton (MH) broth and added to 96-well plates. Two-fold serial dilutions of peptide were then added to bacteria and the plates incubated for 18-24 hours at 37° C. MIC was determined as the concentration of peptide present in the last clear well (no growth). […] In contrast to tobramycin, G10KHc was also effective against aminoglycoside and multiple-antibiotic resistant P. aeruginosa isolated from CF patients (AGR10, MR15). Additionally, as mucoid P. aeruginosa are often associated with reduced susceptibility to antimicrobial agents, we were encouraged to find that G10KHc was active against one such strain, PDO300.

P. aeruginosa ATCC 15692 [4] = assay: Time-kill (killing kinetics), P. aeruginosa in LB with 30% mouse serum; assay type: cell-based, Pseudomonas aeruginosa; settings: 10 μM, 1 min to 2 h
Procedure: Time-Kill (killing kinetics) experiments were performed essentially as described previously (Eckert et al., 2006). Briefly, P. aeruginosa were grown to log phase and diluted to ˜1×10^5 cfu/mL (moderate density planktonic cultures) in LB with 30% mouse serum (MP Biomedicals) prior to the addition of 10 μM tobramycin, G10 or G10KHc to the cell suspensions. At each time point, 10 μL of the culture was removed and P. aeruginosa cells rescued by dilution in 500 μL LB and kept on ice until plating. Surviving cfu/mL were quantitated after plating on LB agar and incubating overnight at 37° C. under aerobic conditions.

S. mutans biofilms = assay: Binding of fluorescently labeled genome-derived peptides to S. mutans biofilms; design: species or system Streptococcus mutans; settings: fluorescent label
Text: The targeting peptide 1903 was obtained by scanning the genomic sequence of S. mutans UA140. The predicted open reading frames (ORFs) of the publicly-available genome were examined and those ORFs that encoded for proteins under 50 amino acids were noted and re-examined after scanning the entire genome. A number of peptides predicted to be encoded by these ORFs were selected, synthesized with fluorescent labels, tested for binding to S. mutans biofilms.

`O=S(=O)(F)Cc1ccccc1` [PMSF, phenylmethylsulphonylfluoride, reference compound] was tested, and the “effect of inhibitor alone on P. aeruginosa viability” value (P. aeruginosa ATCC 15692 [1]; 1 mM) was “only a small affect on P. aeruginosa viability”.

In the case of `CC[C@@H](C)[C@@H](NC(=O)CNC(=O)[C@@H](CCCCN)NC(=O)[C@@H](CCCNC(=N)N)NC(=O)[C@H](NC(=O)[C@H](NC(=O)[C@@H](CCCNC(=N)N)NC(=O)[C@@H](CCCNC(=N)N)NC(=O)[C@@H](CC(C)C)NC(=O)[C@@H](CC(N)=O)NC(=O)[C@@H](CCCCN)NC(=O)[C@@H](CO)NC(=O)CNC(=O)CNC(=O)[C@@H](CO)NC(=O)CNC(=O)CNC(=O)[C@@H](Cc1c[nH]cn1)NC(=O)[C@@H](CCCCN)NC(=O)[C@@H](CCCNC(=N)N)NC(=O)[C@@H](Cc1c[nH]cn1)NC(=O)[C@@H](CCCCN)NC(=O)[C@@H](CCCNC(=N)N)NC(=O)[C@@H](Cc1c[nH]cn1)NC(=O)[C@@H](CCCCN)NC(=O)[C@@H](CCCNC(=N)N)NC(=O)[C@@H](Cc1c[nH]cn1)NC(=O)[C@@H](CCCCN)NC(=O)[C@H](N)CCCCN)[C@H](C)CC)[C@H](C)CC)C(=O)N[C@H](Cc1c[nH]cn1)C(=O)N[C@@H](C(=O)N[C@@H](C(=O)N[C@H](CCCCN)C(=O)N[C@H](CCCCN)C(=O)N[C@H](Cc1ccc(O)cc1)C(=O)NCC(=O)O)[C@H](C)CC)[C@H](C)CC` [Peptide G10KHc-D] (H-[dK][dK][dH][dR][dK][dH][dR][dK][dH][dR][dK][dH]GG[dS]GG[dS][dK][dN][dL][dR][dR][dI][dI][dR][dK]G[dI][dH][dI][dI][dK][dK][dY]G-OH; N-terminus and C-terminus assumed), the “reduction of recovered P. aeruginosa compared to untreated samples” value (P. aeruginosa ATCC 15692 [1]; 25 μM, 4 h, no inhibitor) is reported as 3-4 log10 and the “recovered cfu/mL as percent of untreated control” value (P. aeruginosa ATCC 15692 [2]; concentrated sputum not treated with rhDNase) is reported as about 30%.

In the case of `NC[C@H]1O[C@H](O[C@H]2[C@H](O)[C@@H](O[C@H]3O[C@H](CO)[C@@H](O)[C@H](N)[C@H]3O)[C@H](N)C[C@@H]2N)[C@H](N)C[C@@H]1O` [tobramycin], the “improvement in bactericidal effect over 5 μM G10 or G10KHc” value (P. aeruginosa ATCC 15692 [3]; 5 μM (2.34 μg/mL), 24 hours, high-density planktonic cells) is reported as 1-2 log10, the “surviving cfu/mL” value (P. aeruginosa ATCC 15692 [3]; 5 μM each agent, 24 h, 1×10^8 cfu/mL culture) is reported as 1×10^7 cfu/mL and the “killing effect against P. aeruginosa biofilms” value (P. aeruginosa biofilms) is reported as “very limited killing effects”. It also gave an MIC (P. aeruginosa; ATCC9027, P. aeruginosa ATCC 9027) of 2.12 µM (≈ 0.991 µg/mL), an MIC (P. aeruginosa; ATCC10145, P. aeruginosa ATCC 10145) of 1.75 µM (≈ 0.818 µg/mL) and an MIC (P. aeruginosa; ATCC15692, P. aeruginosa ATCC 15692) of 3.05 µM (≈ 1.43 µg/mL). It also gave an MIC (P. aeruginosa; ATCC27583, P. aeruginosa ATCC 27583) of 1.75 µM (≈ 0.818 µg/mL), an MIC (P. aeruginosa; P. aeruginosa AGR10 (aminoglycoside resistant, CF isolate)) of 55 µM (≈ 25.7 µg/mL) and an MIC (P. aeruginosa; P. aeruginosa MR15 (multiple-antibiotic resistant, CF isolate)) of 55 µM (≈ 25.7 µg/mL). For the same molecule, the MIC (P. aeruginosa; P. aeruginosa PAK) was 2.12 µM (≈ 0.991 µg/mL), the MIC (P. aeruginosa; P. aeruginosa S40) was 0.4 µM (≈ 0.187 µg/mL) and the MIC (P. aeruginosa; P. aeruginosa S60) was 0.4 µM (≈ 0.187 µg/mL). The MIC (P. aeruginosa; P. aeruginosa S100) was 3.5 µM (≈ 1.64 µg/mL), the MIC (P. aeruginosa; PA14, P. aeruginosa PA14) was 0.7 µM (≈ 0.327 µg/mL) and the MIC (P. aeruginosa; PAO1, P. aeruginosa PAO1) was 2.5 µM (≈ 1.17 µg/mL).

For “KNLRRIIRKGIHIIKKYG [novispirin G10, KNLRRIIRKGIHIIKKYG]”, the “killing kinetics (in words)” value (P. aeruginosa ATCC 15692 [4]) was “ineffective”, the MIC range (P. aeruginosa) was 10 to 60 µM and the “mean MIC” value (P. aeruginosa) was 23.4 µM.

In the case of “NIFEYFLE (synthetic targeting peptide 1903)”, the “binding to S. mutans” value (S. mutans biofilms) is reported as “showed the binding activity to S. mutans”.

B1: rhDNase: Recombinant human DNase (Genentech), sputum mucolytic agent (protein, UniProt P24855 23-282, looked up)
Deoxyribonuclease-1: LKIAAFNIQTFGETKMSNATLVSYIVQILSRYDIALVQEVRDSHLTAVGKLLDNLNQDAPDTYHYVVSEPLGRNSYKERYLFVYRPDQVSAVDSYYYDDGCEPCGNDTFNREPAIVRFFSRFTEVREFAIVPLHAAPGDAVAEIDALYDVYLDVQEKWGLEDVMLMGDFNAGCSYVRPSQWSSIRLWTSPTFQWLIPDSADTTATPTHCAYDRIVVAGMLLRGAVVPDSALPFNFQAAYGLSDQLAQAISDHYPVEVMLK
In the case of B1, the “effect of rhDNase treatment alone on P. aeruginosa” value (P. aeruginosa ATCC 15692 [2]; 100 μg/mL rhDNase) is reported as “not affected”.
